Legend:
Format in all cases: cell-based, human
CMV-specific T cells [1] = experiment: CD4+ and CD8+ expression of CMV-specific T cells after 18 days of expansion (flow cytometry); conditions: for CD4+/CD8+ T cell ratio: after 18 days of expansion, Sirolimus LD 20 nmol/l or VLD 2 nmol/l, aIL2R 20 μg/mL, every 2 days; for CD4+ T cell proportion in the culture: after 18 d expansion
Experimental: (§1) CMV-specific T-cells were enriched and expanded using a previously described technique (Becker et al., Nat. Med. 2001, 7, 1159-62). Briefly, 4×10^7 autologous PBMCs were stimulated for 6 h with 1 μg/mL overlapping human cytomegalovirus phosphoprotein 65 (pp65) and immediately early 1 protein (IE1) peptide pools (JPT Peptide Technologies). Pools consisted of 15-mer peptides overlapping by 10 amino acids and were dissolved in dimethyl sulfoxide (DMSO). IFNγ producing cells underwent positive selection by the IFNγ capture-system (Miltenyi Biotech) according to the protocol provided by the manufacturer. IFNγ+ cells were next cultured for 18 days in 24-well plates together with 10^7 irradiated autologous PBMCs using RPMI 1640 supplemented with 10% fetal bovine serum 1% Penicillin/Streptomycin (Biochrom) and 50 U/mL rIL2 (Chiron) and 10 ng/mL rIL7 (Cellgenix) or solitary when indicated elsewise. Where indicated, either mTor-inhibitor (sirolimus, Sigma-Aldrich) at very low dose (VLD, 2 nM) and low dose (LD, 20 nM) or IL2 receptor antagonist (Basiliximab, Simulect, Novartis) at 20 μg/mL were added from day 1 on every two days together with subsequent media supplementation.
Following antigen specific stimulation, cytokine secretion (IFNγ, TNFα and IL2) and activation marker expression (CD137 and CD154) were determined by intracellular fluorescence staining. All antibodies were purchased from Becton Dickinson (BD), except indicated. Virus infected monocytes and peptide-pool loaded LCL or monocytes (1 μg/mL IE-1/pp65) were added to T cells in diluting ratio of 1:10. Unpulsed LCL or monocytes (DMSO incubated) display unstimulated control. For effector cytokine detection, cultured T cells were re-stimulated for 18 h in the presence of 1 μg/mL brefeldin A (Sigma-Aldrich). For CD107a (H4A3) detection, 2 μM monensin (Golgi Stop, BD) was ancillary added. Cells were then harvested and phenotype was stained with monoclonal antibodies for surface markers CD3 (UCHT1, eBioscience), CD8 (3B5, Invitrogen) and CD4 (SK3). To define memory phenotypes, T cells were extracellularly stained for CCR7 (#150503, R&D), CD62L (DREG56, Beckman Coulter), CD45RA (2H4LDH11LDB9, Beckman Coulter) and CD127 (hIL-7R-M21). To exclude dead cells, live/dead-discrimination staining-dye (Invitrogen) was added. Subsequently, cells were permeabilized with Perm2 solution (BD Biosciences) and stained for IFNγ (4S.B3, eBiosciences), TNFα (MAb11), IL2 (MQ1-17H12), CD137 (4B4-1) and CD154 (TRAP1). To define regulatory T cells, T cells were stained intranuclear for Foxp3 (259D/C7) and Helios (22F6, BioLegend). For intracellular staining of Foxp3 and Helios, Foxp3 staining kit from eBioscience was used. Cells were measured with a LSR-II flow cytometer and analyzed using FlowJo Version 8 software (Tree Star). […]

CMV-specific T cells [2] = experiment: Differentiation / central memory phenotype (CCR7, CD45RA, CD62L, CD127) of expanded CMV-specific T cells; conditions: for CD62L expression on purified CD8+ T cells: CD8+ T cells cultured separately; for CD62L expression on purified CD8+ T cells / CD62L expression, CD8+ T cell bulk cultures and separately cultured CD4+ T cells: FIG. 12; for expression of the cell surface marker CD62L: CMV specific T-cell lines, day 18, six independent experiments; for central/memory T cells (CCR7+ CD45RA-): after 18 days of expansion; for expansion rate and keeping the TCM phenotype with full functionality: cultivation with both IL-2 and IL-7, FIG. 13; for CD62L expression, CD8+ T cell bulk cultures and separately cultured CD4+ T cells: rapamycin LD; for TCM formation: together with either IL-2 or IL-7, FIG. 13, four independent experiments
Experimental: as §1
(§2) Following antigen specific stimulation, cytokine secretion (IFNγ, TNFα and IL2) and activation marker expression (CD137 and CD154) were determined by intracellular fluorescence staining. All antibodies were purchased from Becton Dickinson (BD), except indicated. Virus infected monocytes and peptide-pool loaded LCL or monocytes (1 μg/mL IE-1/pp65) were added to T cells in diluting ratio of 1:10. Unpulsed LCL or monocytes (DMSO incubated) display unstimulated control. For effector cytokine detection, cultured T cells were re-stimulated for 18 h in the presence of 1 μg/mL brefeldin A (Sigma-Aldrich). For CD107a (H4A3) detection, 2 μM monensin (Golgi Stop, BD) was ancillary added. Cells were then harvested and phenotype was stained with monoclonal antibodies for surface markers CD3 (UCHT1, eBioscience), CD8 (3B5, Invitrogen) and CD4 (SK3). To define memory phenotypes, T cells were extracellularly stained for CCR7 (#150503, R&D), CD62L (DREG56, Beckman Coulter), CD45RA (2H4LDH11LDB9, Beckman Coulter) and CD127 (hIL-7R-M21). To exclude dead cells, live/dead-discrimination staining-dye (Invitrogen) was added. Subsequently, cells were permeabilized with Perm2 solution (BD Biosciences) and stained for IFNγ (4S.B3, eBiosciences), TNFα (MAb11), IL2 (MQ1-17H12), CD137 (4B4-1) and CD154 (TRAP1). To define regulatory T cells, T cells were stained intranuclear for Foxp3 (259D/C7) and Helios (22F6, BioLegend). For intracellular staining of Foxp3 and Helios, Foxp3 staining kit from eBioscience was used. Cells were measured with a LSR-II flow cytometer and analyzed using FlowJo Version 8 software (Tree Star). Lymphocytes were gated based on the FSC versus SSC profile and subsequently gated on FSC (height) versus FSC to exclude doublets.

CMV-specific T cells [3] = experiment: Intracellular cytokine and activation marker staining after antigen specific stimulation with peptide loaded APCs; conditions: for quantity and quality of virus-specific T cells: in vitro
Experimental: as §2
CD4+ and CD8+ T cells (A Sirolimus; B aIL2R antagonist). Frequencies were assessed following antigen specific stimulation. Specific T-cells were stimulated for 18 h (16 h Brefeldin A) w/peptide loaded APCs in ratio of 1:10. APCs were pulsed with 1 μg/mL IE-1/pp65 peptide pool. IFNγ, TNFα and IL2 cytokine secretion and CD137 and CD154 activation marker expression were determined by intracellular staining. Cells were permeabilized and stained for IFNγ, IL2, TNFα, live/dead dye, CD3, CD4, CD8, CD137 and CD154.

[4] = test system: CMV strain NEWT infected autologous monocytes; experiment: Response of expanded T cells to NEWT infected autologous monocytes / iDC; conditions: co-culture 18 h, T cell/target ratio 10:1
Experimental: Differentiated monocytes infected with CMV-related laboratory wildtype strain NEWT were used as targets. To mimic CMV-infection, autologous LCL were pulsed with 1 μg/mL overlapping CMVpp65/IE-1 peptide pools, whereas unpulsed LCL display uninfected targets. Targets were labeled with 10 μM carboxyfluorescein succinimidyl ester (CFDA-SE Molecular Probes). As controls, unpulsed LCL and uninfected differentiated monocytes (Fibroblast incubated) were labeled with 5 μM dimethyldodecylamine oxide-succinimidyl ester (Far Red; Invitrogen). Cells were co-cultured for 16 h in T cell/target ratio of 10:1. Probes were analyzed as triplicates using LSR-II flow cytometer. […] Analysis was gated on live/dead-discrimination staining-dye negative cells (near-IR fluorescent reactive dye, Invitrogen). The mean percent survival of pulsed or NEWT infected targets was calculated relative to antigen-unpulsed controls. Percentaged lytic activity of target lysis was calculated as follows: mean percent survival of targets in cultures containing defined numbers of effector T cells in comparison to control cells without T cells. […]
Following antigen specific stimulation, cytokine secretion (IFNγ, TNFα and IL2) and activation marker expression (CD137 and CD154) were determined by intracellular fluorescence staining. […] Cells were measured with a LSR-II flow cytometer and analyzed using FlowJo Version 8 software (Tree Star). […]

CMV-specific T cells [5] = experiment: Expansion of CMV-specific T cell culture over 18 days; conditions: for expansion of central memory T cells (TCM): after 18 d of treatment, FIG. 4D
Experimental: as §1

[6] = day 18, after antigen specific stimulation

Which results are given for CO[C@H]1C[C@@H]2CC[C@@H](C)[C@@](O)(O2)C(=O)C(=O)N2CCCC[C@H]2C(=O)O[C@H]([C@H](C)C[C@@H]2CC[C@@H](O)[C@H](OC)C2)CC(=O)[C@H](C)/C=C(\C)[C@@H](O)[C@@H](OC)C(=O)[C@H](C)C[C@H](C)/C=C/C=C/C=C/1C [Sirolimus]?
CD4+/CD8+ T cell ratio (CMV-specific T cells [1]): more balanced CD4+/CD8+ T cell ratio; CD4+ T cell proportion in the culture (CMV-specific T cells [1]): increased the CD4+ T cell proportion; CD62L expression on purified CD8+ T cells (CMV-specific T cells [2]): could not be enhanced; expression of the cell surface marker CD62L (CMV-specific T cells [2]): significant prolonged expression; central/memory T cells (CCR7+ CD45RA-) (CMV-specific T cells [2]): significantly increases central/memory T cells; expansion rate and keeping the TCM phenotype with full functionality (CMV-specific T cells [2]): best results; CD62L expression, CD8+ T cell bulk cultures and separately cultured CD4+ T cells (CMV-specific T cells [2]): increased CD62L expression; TCM formation (CMV-specific T cells [2]): promotes TCM formation; CD137 activation marker expression on CD8+ T cells (CMV-specific T cells [3]; [6]): dose-dependent elevated; CD137 and CD154 activation marker expression on CD4+ T cells (CMV-specific T cells [3]; [6]): not impaired; quantity and quality of virus-specific T cells (CMV-specific T cells [3]): enhance the quantity and quality; response to NEWT infected autologous monocytes (IFNγ, TNFα, CD137, CD154) [4]: superiorly respond; clonal expansion (CMV-specific T cells [5]; 18 days of expansion): without affecting clonal expansion; expansion of central memory T cells (TCM) (CMV-specific T cells [5]): sequential expansion of both CD4 and CD8 central memory T cells

With Basiliximab [aIL2R] as the molecule, how does the “CD4+/CD8+ T cell ratio” value (CMV-specific T cells [1]) read?
Its value is “more balanced CD4+/CD8+ T cell ratio”.

And the “CD62L expression on purified CD8+ T cells” value (CMV-specific T cells [2])?
Its value is “could not be enhanced”.

And the “expression of the cell surface marker CD62L” value (CMV-specific T cells [2])?
The value was “significant prolonged expression”.

What about the “central/memory T cells (CCR7+ CD45RA-)” value (CMV-specific T cells [2]) of the same molecule?
The value was “significantly increases central memory T cells”.

What about the “expansion rate and keeping the TCM phenotype with full functionality” value (CMV-specific T cells [2]) of the same molecule?
Its value is “best results”.

And the “CD62L expression, CD8+ T cell bulk cultures and separately cultured CD4+ T cells” value (CMV-specific T cells [2])?
Its value is “increased CD62L expression”.

And the TCM formation (CMV-specific T cells [2])?
The TCM formation was “promotes TCM formation”.

And the “CD137 activation marker expression on CD8+ T cells” value (CMV-specific T cells [3]; [6])?
The value was “dose-dependent elevated”.

And the “response to NEWT infected autologous monocytes (IFNγ, TNFα, CD137, CD154)” value [4]?
Its value is “superiorly respond”.

And the “expansion of central memory T cells (TCM)” value (CMV-specific T cells [5])?
Its value is “sequential expansion of both CD4 and CD8 central memory T cells”.

B1: Daclizumab (antibody, chains of the INN, looked up, V domains shown)
VH: QVQLVQSGAEVKKPGSSVKVSCKASGYTFTSYRMHWVRQAPGQGLEWIGYINPSTGYTEYNQKFKDKATITADESTNTAYMELSSLRSEDTAVYYCARGGGVFDYWGQGTLVTVSS
VL: DIQMTQSPSTLSASVGDRVTITCSASSSISYMHWYQQKPGKAPKLLIYTTSNLASGVPARFSGSGSGTEFTLTISSLQPDDFATYYCHQRSTYPLTFGQGTKVEVK
notes: humanized monoclonal antibody against the alpha chain of IL2-receptor complex, CAS number 152923-59-3; b50 calls it Simulect
What does the source list for B1?
CD4+ T cell proportion in the culture (CMV-specific T cells [1]): increased the CD4+ T cell proportion; quantity and quality of virus-specific T cells (CMV-specific T cells [3]): enhance the quantity and quality

From US9763985B2, “Antigen-specific central-memory T cell preparations having high CD4+ fraction” (priority 2011, dated 2017)
